According to patent publication US10828578B2, “Reversible control of solution solubility using functionalized nanoparticles” (Massachusetts Institute of Technology, priority 2016, dated 2020):
Values after ≈ are worked out from the molar mass of the structure shown. Blank lines part the entries; values can stand above or below the molecule they belong to.

Columns and labels:
physchem [1] = conditions: water, thermodynamic from solid
Description: A saturated solution of ibuprofen in water was prepared at room temperature. […] An additional 20 mg of ibuprofen was added to 5 mL of the saturated solution. Then, 200 mg of iron oxide nanoparticles that had been functionalized with glycolic acid were added and mixed. Clear samples of solution were then taken from the slurry and analyzed with HPLC.

[2] = Solubility and metastable zone width of D-mannitol in water and water-ethanol mixtures (Crystal16); type: physicochemical; conditions: with an increase in the amount of ethanol (85-15, 75-25, 50-50% wt/wt water-ethanol)
Text: According to the results of D-mannitol in water and water-ethanol mixtures, the solubility decreases with an increase in the amount of ethanol in water-ethanol mixtures. In order to know the required amount of functionalized nanoparticles and the operating region for crystallization, the MSZW of D-mannitol is important. For the samples of D-mannitol in the mixtures of 85-15 and 75-25% wt/wt of water-ethanol, the cloud point lies above the saturation temperature of D-mannitol in pure water. This means that, for the mixtures of 85-15 and 75-25% water-ethanol, and the solutes with a concentration of 193 mg/ml at 20° C., spontaneous nucleation will not occur because they will remain in solution. However, these experiments helped to determine the optimum operating supersaturation levels as well as the amount of antisolvent required to crystallize compounds at a given concentration. […]
The solubility and metastable zone width (MSZW) of D-mannitol was measured in pure DI water and DI water-ethanol mixtures at different concentrations by adding a known amount of D-mannitol and 1 mL of solvent or solvent mixtures respectively to a 1.5 mL glass vial. […] The temperature at which the suspension turned into a clear solution was recorded and assumed to be the saturation temperature. […] The temperatures at which the crystals are detected are assumed to be a cloud point. […]

physchem [3] = conditions: water
Description: The method development involved the study of methanol and acetonitrile as organic modifiers, pH and flow-rate using a Chromolith RP-18e (150 mm×4.6 mm I.D.) column. After comparing the performance the optimum analysis of these compounds was achieved using 50 mM acetate buffer (pH 5.0)-acetonitrile (80:20, v/v) as mobile phase, 1 mL min-1 flow-rate and UV detection at maximum absorbance wavelength of 250 nm.

[4] = Solubility enhancement in water with glycolic acid functionalized iron oxide nanoparticles (HPLC); conditions: 2 ml suspension 20 g/L in water + 200 mg glycolic acid IONPs; part converted to 4-aminophenol
Description: The clear solution was analyzed using HPLC in order to determine the final concentration.

[5] = NaCl concentration change in water after crystallization with functionalized gold nanoparticles (digital density meter); type: physicochemical; conditions: 1.8 nm gold nanoparticles with ethanol group, seeded, 16 hour stirring
Text: The antisolvent crystallization of NaCl is the best example of the influence of agglomeration on the final product purity. Though the crystals are crystallized from a mother liquor containing as much as 50% weight antisolvent (on a solvent basis), the uptake of the antisolvent is as low as 30 ppm. In the present study, functionalized nanoparticles were used to crystallize NaCl from a water solution. NaCl is highly soluble in water and slightly soluble in ethanol. In the case of NaCl crystallization, water was used as a solvent and ethanol was used as an antisolvent. NaCl was crystallized in water using 1.8 nm functionalized nanoparticles with an ethanol group at the open terminal. […] After 4 hours the sample was seeded with NaCl crystals and the sample was crystallized only after 16 hour of stirring. The initial and final concentration of NaCl was measured using the Digital Density Meter DMA4500. This instrument is used for accurate measurements of solvent density necessary for the concentration measurements. […] The change in concentration after crystallization measured using the digital density meter was 27 mg.

solubility (physchem [1]): 0.009 mg/mL (≈ 0.0436 mM)
SMILES: CC(C)Cc1ccc(C(C)C(=O)O)cc1 (stereo not drawn) [ibuprofen]

solubility of D-mannitol in water-ethanol mixtures [2]: decreases
SMILES: OC[C@@H](O)[C@@H](O)[C@H](O)[C@H](O)CO [D-mannitol]

SMILES: O=[N+]([O-])c1ccc(O)cc1 [4-nitrophenol]
solubility thermodynamic at 24 h (physchem [3]; 20 °C, thermodynamic from solid): 13 mg/mL (≈ 93.5 mM)
solubility at 24 h (physchem [3]; 25 °C): 13 mg/mL (≈ 93.5 mM)
concentration in clear solution after IONP addition [4]: 16500 µg/mL

SMILES: [Cl-].[Na+] [NaCl, Sodium chloride]
change in concentration after crystallization [5]: 27 mg
